Assay results: US20250136606A1, “MODULATORS OF TRPML, THEIR COMPOSITIONS AND METHODS OF USE” (Caraway Therapeutics, Inc., priority 2021, published 2025)

Assays:
Assay type in all cases: cell-based
Conditions in all cases: fluorescent calcium assay
[1] = target: TRPML1 (Homo sapiens, UniProt Q9GZU1); experiment: Fluorescent TRPML1 assay (Fluo4-AM calcium fluorescence in doxycycline-induced HEK-293 Trex cells)
Summary of the method: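 hTRPML1 (mutated for cell-surface expression) in HEK-293 Trex, dox 0.5 ug/mL o/n; Fluo4-AM 1 uM ~60 min, then ~60 min de-esterification, dark; modified Ringer's + 10 mM Ca. Cmpds 20 uM–6 nM final, half-log, n=3. Ex480/Em540; % activity vs ctrls; EC50 by nonlinear regression.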

[2] = target: T1, TRPML2 (Homo sapiens, UniProt Q8IZK6); experiment: Fluorescent TRPML2 assay (performed as for TRPML1, substituting the TRPML2 subtype)
T1 construct: expressed in transfected cells
T1 sequence (Q8IZK6 1-566): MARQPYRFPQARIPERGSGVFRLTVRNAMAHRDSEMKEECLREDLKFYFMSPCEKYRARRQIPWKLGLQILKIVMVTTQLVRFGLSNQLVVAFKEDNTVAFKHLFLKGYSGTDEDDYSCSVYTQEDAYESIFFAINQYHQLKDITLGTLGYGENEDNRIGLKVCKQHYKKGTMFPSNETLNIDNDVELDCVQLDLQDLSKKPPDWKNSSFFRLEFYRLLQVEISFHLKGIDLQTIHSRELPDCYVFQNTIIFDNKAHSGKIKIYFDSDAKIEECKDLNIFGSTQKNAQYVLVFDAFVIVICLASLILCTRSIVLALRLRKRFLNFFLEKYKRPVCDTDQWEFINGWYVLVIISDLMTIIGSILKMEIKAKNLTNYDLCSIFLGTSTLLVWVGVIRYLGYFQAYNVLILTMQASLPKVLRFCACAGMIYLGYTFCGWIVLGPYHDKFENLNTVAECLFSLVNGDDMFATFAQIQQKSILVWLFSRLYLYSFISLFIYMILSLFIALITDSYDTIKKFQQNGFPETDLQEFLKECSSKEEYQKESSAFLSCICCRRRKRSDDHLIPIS
Summary of the method: (§1)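 HEK-293 Trex cells with doxycycline-induced (0.5 ug/mL) surface-directed human TRPML subtype, loaded with 1 μM Fluo4-AM, resuspended in Ringer's with 10 mM calcium. Compounds at 20 μM to 6 nM final in half-log steps, triplicate; fluorescence ex 480/em 540; EC50 by non-linear regression versus plate controls.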

[3] = target: T2, TRPML3 (Homo sapiens, UniProt Q8TDD5); experiment: Fluorescent TRPML3 assay (performed as for TRPML1, substituting the TRPML3 subtype)
T2 construct: expressed in transfected cells
T2 sequence (Q8TDD5 1-553): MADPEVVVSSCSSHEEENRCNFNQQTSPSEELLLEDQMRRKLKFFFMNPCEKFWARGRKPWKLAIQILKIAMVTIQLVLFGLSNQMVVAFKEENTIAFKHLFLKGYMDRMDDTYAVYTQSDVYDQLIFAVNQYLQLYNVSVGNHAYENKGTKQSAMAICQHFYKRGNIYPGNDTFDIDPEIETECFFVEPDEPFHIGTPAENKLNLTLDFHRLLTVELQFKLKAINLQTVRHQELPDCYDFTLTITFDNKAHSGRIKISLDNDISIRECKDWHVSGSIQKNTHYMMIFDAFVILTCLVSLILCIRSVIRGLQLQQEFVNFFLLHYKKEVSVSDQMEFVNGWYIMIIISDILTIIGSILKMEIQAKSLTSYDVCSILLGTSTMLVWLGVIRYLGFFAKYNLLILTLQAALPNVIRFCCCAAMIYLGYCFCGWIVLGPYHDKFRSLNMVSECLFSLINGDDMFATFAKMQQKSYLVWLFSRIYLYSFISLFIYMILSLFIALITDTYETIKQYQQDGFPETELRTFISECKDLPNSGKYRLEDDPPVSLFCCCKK
Summary of the method: as §1

TRPML1, sequence (Q9GZU1 whole entry L15A/L16A/L577A/L578A, form open): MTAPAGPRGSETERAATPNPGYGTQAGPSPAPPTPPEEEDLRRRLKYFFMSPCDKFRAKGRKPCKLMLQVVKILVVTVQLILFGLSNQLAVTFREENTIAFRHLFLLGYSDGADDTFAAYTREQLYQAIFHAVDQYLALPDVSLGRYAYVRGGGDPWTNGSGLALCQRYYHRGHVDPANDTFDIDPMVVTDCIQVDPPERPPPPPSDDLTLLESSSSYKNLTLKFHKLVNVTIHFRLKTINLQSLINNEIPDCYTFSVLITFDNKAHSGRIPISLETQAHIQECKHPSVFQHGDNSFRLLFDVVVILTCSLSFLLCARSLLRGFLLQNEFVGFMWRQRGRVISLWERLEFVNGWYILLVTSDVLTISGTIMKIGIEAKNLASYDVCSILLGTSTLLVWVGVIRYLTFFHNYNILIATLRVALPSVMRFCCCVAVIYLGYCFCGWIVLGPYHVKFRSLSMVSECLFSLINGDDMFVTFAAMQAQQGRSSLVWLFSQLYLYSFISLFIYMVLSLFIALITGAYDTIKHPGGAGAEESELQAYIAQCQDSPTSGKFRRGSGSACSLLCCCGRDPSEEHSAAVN

| SMILES | EC50 [1] [nM] | EC50 [2] [nM] | EC50 [3] [nM] |
| --- | --- | --- | --- |
| C[C@@H]1CN(c2ncnc3c2c(N(C)C)cn3-c2cc(C#N)ccn2)CCN1C(=O)OC(C)(C)C [Compound 427, tert-Butyl (R)-4-(7-(4-cyanopyridin-2-yl)-5-(dimethylamino)-7H-pyrrolo[2,3-d]pyrimidin-4-yl)-2-methylpiperazine-1-carboxylate] | < 100 | < 100 | < 100 |
| CC(C)(C)OC(=O)N1CCN(c2ncnc3c2c(C2CC2)cn3-c2cc(C#N)ccn2)C2(CC2)C1 [Compound 429, tert-butyl 4-(7-(4-cyanopyridin-2-yl)-5-cyclopropyl-7H-pyrrolo[2,3-d]pyrimidin-4-yl)-4,7-diazaspiro[2.5]octane-7-carboxylate] | < 100 | < 100 | < 100 |
| C[C@@H]1CN(c2ncnc3c2c(N(C)C)cn3-c2cccc(Cl)c2)CCN1C(=O)OC(C)(C)C [Compound 430, tert-butyl (R)-4-(7-(3-chlorophenyl)-5-(dimethylamino)-7H-pyrrolo[2,3-d]pyrimidin-4-yl)-2-methylpiperazine-1-carboxylate] | < 100 | 100 to 500 | < 100 |
| C[C@H]1CN(C(=O)OC(C)(C)C)CCN1c1ncnc2c1c(C1CC1)cn2-c1cc(C#N)ncn1 [Compound 431, tert-butyl (S)-4-(7-(6-cyanopyrimidin-4-yl)-5-cyclopropyl-7H-pyrrolo[2,3-d]pyrimidin-4-yl)-3-methylpiperazine-1-carboxylate] | 100 to 500 | 500 to 2000 | < 100 |
| C[C@H]1CN(C(=O)OC(C)(C)C)CCN1c1ncnc2c1c(C1CC1)cn2-c1nccc(C#N)n1 [Compound 432, tert-Butyl (S)-4-(7-(4-cyanopyrimidin-2-yl)-5-cyclopropyl-7H-pyrrolo[2,3-d]pyrimidin-4-yl)-3-methylpiperazine-1-carboxylate] | 100 to 500 | 500 to 2000 | < 100 |
| C[C@H]1CN(C(=O)OC(C)(C)C(F)(F)F)CCN1c1ncnc2c1c(C1CCC1)cn2-c1cc(C#N)ccn1 [Compound 436, 1,1,1-trifluoro-2-methylpropan-2-yl(S)-4-(7-(4-cyanopyridin-2-yl)-5-cyclobutyl-7H-pyrrolo[2,3-d]pyrimidin-4-yl)-3-methylpiperazine-1-carboxylate] | < 100 | 100 to 500 | < 100 |
| C[C@H]1CN(C(=O)OC(C)(C)C)CCN1c1ncnc2c1c(C1CC1)cn2-c1cc(C#N)cnn1 [Compound 439, tert-butyl (S)-4-(7-(5-cyanopyridazin-3-yl)-5-cyclopropyl-7H-pyrrolo[2,3-d]pyrimidin-4-yl)-3-methylpiperazine-1-carboxylate] | 100 to 500 | 500 to 2000 | < 100 |
| C[C@H]1CN(C(=O)OC(C)(C)C)CCN1c1ncnc2c1c(C1CC1)cn2-c1ncc(C#N)[nH]1 [Compound 440, tert-butyl (S)-4-(7-(5-cyano-1H-imidazol-2-yl)-5-cyclopropyl-7H-pyrrolo[2,3-d]pyrimidin-4-yl)-3-methylpiperazine-1-carboxylate] | > 2000 | > 2000 | 500 to 2000 |
| CCN(CC)c1cn(-c2cc(C#N)ccn2)c2ncnc(N3CCN(C(=O)OC(C)(C)C)CC3)c12 [Compound 441, tert-butyl 4-(7-(4-cyanopyridin-2-yl)-5-(diethylamino)-7H-pyrrolo[2,3-d]pyrimidin-4-yl)piperazine-1-carboxylate] | 100 to 500 | > 2000 | 100 to 500 |
| C[C@H]1CN(C(=O)OC(C)(C)C)CCN1c1ncnc2c1c(N(C)C1CC1)cn2-c1cc(C#N)ccn1 [Compound 442, tert-butyl (S)-4-(7-(4-cyanopyridin-2-yl)-5-(cyclopropyl(methyl)amino)-7H-pyrrolo[2,3-d]pyrimidin-4-yl)-3-methylpiperazine-1-carboxylate] | < 100 | 500 to 2000 | < 100 |
| CC(C)N(C)c1cn(-c2cc(C#N)ccn2)c2ncnc(N3CCN(C(=O)OC(C)(C)C)C[C@@H]3C)c12 [Compound 443, tert-butyl (S)-4-(7-(4-cyanopyridin-2-yl)-5-(isopropyl(methyl)amino)-7H-pyrrolo[2,3-d]pyrimidin-4-yl)-3-methylpiperazine-1-carboxylate] | < 100 | < 100 | < 100 |
| C[C@H]1CN(C(=O)OC(C)(C)C)CCN1c1ncnc2c1c(C1CC1)cn2-c1cc(C#N)n(C)c1 [Compound 445, tert-butyl (S)-4-(7-(5-cyano-1-methyl-1H-pyrrol-3-yl)-5-cyclopropyl-7H-pyrrolo[2,3-d]pyrimidin-4-yl)-3-methylpiperazine-1-carboxylate] | < 100 | 100 to 500 | < 100 |
| C[C@H]1CN(C(=O)OC(C)(C)C)CCN1c1nccc2c1c(C1CC1)cn2-c1cc(C#N)ccn1 [Compound 446, tert-butyl (S)-4-(1-(4-cyanopyridin-2-yl)-3-cyclopropyl-1H-pyrrolo[3,2-c]pyridin-4-yl)-3-methylpiperazine-1-carboxylate] | < 100 | 100 to 500 | < 100 |

Continued, values first:

| EC50 [1] [nM] | EC50 [2] [nM] | EC50 [3] [nM] | SMILES |
| --- | --- | --- | --- |
| < 100 | < 100 | < 100 | C[C@H]1CN(C(=O)OC(C)(C)C)CCN1c1ncnc2c1c(-c1ccccc1F)cn2-c1ncc(C#N)s1 [Compound 428, tert-butyl (S)-4-(7-(5-cyanothiazol-2-yl)-5-(2-fluorophenyl)-7H-pyrrolo[2,3-d]pyrimidin-4-yl)-3-methylpiperazine-1-carboxylate] |
| 100 to 500 | 500 to 2000 | 100 to 500 | C[C@H]1CN(C(=O)OC(C)(C)C)CCN1c1ncnc2c1c(-c1ccccc1F)cn2-c1nc(C#N)cs1 [Compound 433, tert-butyl (S)-4-(7-(4-cyanothiazol-2-yl)-5-(2-fluorophenyl)-7H-pyrrolo[2,3-d]pyrimidin-4-yl)-3-methylpiperazine-1-carboxylate] |
| < 100 | < 100 | < 100 | C[C@@H]1CN(c2ncnc3c2c(-c2ccccc2F)cn3-c2ncc(C#N)s2)[C@@H](C)CN1C(=O)OC(C)(C)C [Compound 434, tert-butyl (2R,5S)-4-(7-(5-cyanothiazol-2-yl)-5-(2-fluorophenyl)-7H-pyrrolo[2,3-d]pyrimidin-4-yl)-2,5-dimethylpiperazine-1-carboxylate] |
| < 100 | < 100 | < 100 | CC(C)(C)OC(=O)N1CCN(c2ncnc3c2c(-c2ccccc2F)cn3-c2cc(C#N)ccn2)C2(CC2)C1 [Compound 435, tert-butyl 4-(7-(4-cyanopyridin-2-yl)-5-(2-fluorophenyl)-7H-pyrrolo[2,3-d]pyrimidin-4-yl)-4,7-diazaspiro[2.5]octane-7-carboxylate] |
| < 100 | < 100 | < 100 | C[C@H]1CN(C(=O)OC(C)(C)C)CCN1c1ncnc2c1c(-c1ccccc1F)cn2-c1cc(C#N)ncn1 [Compound 437, tert-butyl (S)-4-(7-(6-cyanopyrimidin-4-yl)-5-(2-fluorophenyl)-7H-pyrrolo[2,3-d]pyrimidin-4-yl)-3-methylpiperazine-1-carboxylate] |
| < 100 | 500 to 2000 | < 100 | C[C@H]1CN(C(=O)OC(C)(C)C)CCN1c1ncnc2c1c(-c1ccccc1F)cn2-c1nccc(C#N)n1 [Compound 438, tert-butyl (S)-4-(7-(4-cyanopyrimidin-2-yl)-5-(2-fluorophenyl)-7H-pyrrolo[2,3-d]pyrimidin-4-yl)-3-methylpiperazine-1-carboxylate] |
| < 100 | 100 to 500 | < 100 | Cc1cc(-n2cc(-c3ccccc3F)c3c(N4CCN(C(=O)OC(C)(C)C)C[C@@H]4C)ncnc32)cc(C#N)n1 [Compound 444, tert-butyl (S)-4-(7-(2-cyano-6-methylpyridin-4-yl)-5-(2-fluorophenyl)-7H-pyrrolo[2,3-d]pyrimidin-4-yl)-3-methylpiperazine-1-carboxylate] |
